Converted amounts (≈) assume the structure as drawn.
How the values were obtained:
[1] = Inhibition of linoleic acid peroxidation (LP), AAPH-initiated; set-up: tested at 100 µM; conditions: 100 μΜ, 37 °C
Procedure: To initiate lipid peroxidation, the free radical AAPH was used[10]. The final solution in the UV cuvette consisted of 10 µl sodium linoleate solution (c = 16 mM) and 0.93 ml phosphate buffer pH 7.4 (c = 50 mM). Afterwards, 10 µl of the tested compound solution in DMSO (final concentration 0.1 mM) and 50 µl of AAPH solution (c = 40 mM) were added. The experiment was performed at 37 °C under air. Oxidation of linoleic acid sodium salt was monitored at 234 nm. The assay was repeated at least in triplicate and the standard deviation of absorbance was less than 10% of the mean. Trolox was used under the same experimental conditions as a reference compound.

[2] = test system: Candida parapsylosis ATCC 22019; assay: MIC determination (broth micro-dilution); type: cell-based; conditions: ATCC22019
Procedure: (§1) Before analysis, compounds 5a–f were dissolved in 96% ethanol in a concentration of 2 mg/ml as stock solutions. Inoculums were prepared with fresh cultures of microbial strains, cultured on tryptic-soy agar or Sabouraud 2% (m/v) dextrose agar for 18 h (48–72 h for fungi) at 30 °C with physiological saline containing approximately […]. Inoculum density (0.5 McFarland units) was adjusted with a bio Mériex (France) densitometer. Minimum inhibitory concentration (MIC) was determined by the twofold micro-dilution method in Mu¨ller–Hinton broth for bacterial strains and RPMI 1640 + 2% m/v dextrose for fungi according to the EUCAST recommendations in a sterile 96-well flat-bottom plastic tissue culture plate. MIC was determined using a linear regression curve after incubation of compounds and reading the optical density at 570 nm using an iEMS microplate reader. […] All tests were performed in triplicate and expressed as the mean.

[3] = test system: Enterococcus hyrae ATCC 8043; assay: MIC determination (broth micro-dilution); type: cell-based; conditions: ATCC8043
Procedure: as §1

[4] = test system: Candida krusei ATCC 14243; assay: MIC determination (broth micro-dilution); type: cell-based; conditions: Pichia kudriavzevii, ATCC14243
Procedure: as §1

[5] = test system: Staphylococcus aureus ATCC 25923; assay: MIC determination (broth micro-dilution); type: cell-based; conditions: ATCC25923
Procedure: as §1

[6] = test system: Burkholderia caepacia ATCC 25416; assay: MIC determination (broth micro-dilution); type: cell-based; conditions: ATCC25416
Procedure: as §1

[7] = test system: Candida albicans ATCC 90028; assay: MIC determination (broth micro-dilution); type: cell-based; conditions: ATCC90028
Procedure: as §1

[8] = test system: Pseudomonas aeruginosa ATCC 9027; assay: MIC determination (broth micro-dilution); type: cell-based; conditions: ATCC9027
Procedure: as §1

[9] = test system: Escherichia coli ATCC 10536; assay: MIC determination (broth micro-dilution); type: cell-based; conditions: ATCC10536
Procedure: as §1

[10] = test system: Bacillus cereus ATCC 11778; assay: MIC determination (broth micro-dilution); type: cell-based; conditions: ATCC11778
Procedure: as §1

[11] = test system: Pseudomonas aeruginosa ATCC 27853; assay: MIC determination (broth micro-dilution); type: cell-based; conditions: ATCC27853
Procedure: as §1

Candida kefyr ATCC 2512 = assay: MIC determination (broth micro-dilution); type: cell-based; conditions: Kluyveromyces marxianus, ATCC2512
Procedure: as §1

[12] = test system: Candida tropicalis ATCC 750; assay: MIC determination (broth micro-dilution); type: cell-based; conditions: ATCC750
Procedure: as §1

[13] = test system: Aspergillus niger ATCC 16404; assay: MIC determination (broth micro-dilution); type: cell-based; conditions: ATCC16404
Procedure: as §1

[14] = test system: Enterococcus faecalis ATCC 29212; assay: MIC determination (broth micro-dilution); type: cell-based; conditions: ATCC29212
Procedure: as §1

[15] = test system: Issatchenkia orientalis Kudrjanzev ATCC 6258; assay: MIC determination (broth micro-dilution); type: cell-based; conditions: Pichia kudriavzevii, ATCC6258
Procedure: as §1

[16] = test system: Staphylococcus aureus ATCC 25213; assay: MIC determination (broth micro-dilution); type: cell-based; conditions: ATCC25213
Procedure: as §1

[17] = test system: Kocuria rhizophila ATCC 9341; assay: MIC determination (broth micro-dilution); type: cell-based; conditions: ATCC9341
Procedure: as §1

[18] = test system: Staphylococcus aureus ATCC 6538; assay: MIC determination (broth micro-dilution); type: cell-based; conditions: ATCC6538
Procedure: as §1

[19] = test system: Bacillus subtilis ATCC 6633; assay: MIC determination (broth micro-dilution); type: cell-based; conditions: ATCC6633
Procedure: as §1

[20] = test system: Escherichia coli ATCC 8739; assay: MIC determination (broth micro-dilution); type: cell-based; conditions: ATCC8739
Procedure: as §1

[21] = test system: Candida albicans ATCC 10231; assay: MIC determination (broth micro-dilution); type: cell-based; conditions: ATCC10231
Procedure: as §1

[22] = In vitro haemolytic activity; type: cell-based; conditions: male, 4% (v/v) fresh human erythrocyte suspension, 4% human erythrocytes, read-out: Haemolysis (%); for hemolysis at 1 h, 50 µg/ml: pH 7, 50 μg/ml; for hemolysis at 1 h, 100 µg/ml: pH 7, 100 μg/ml; for hemolysis at 1 h, 200 µg/ml: pH 7, 200 μg/ml
Procedure: Then, 4% (v/v) of fresh human erythrocyte solution (hErc) was prepared using a PBS pH 7.0 solution. A series of diluted compounds from 200 to 50 µg/ml were prepared in a total volume of 1 ml with hErc solution. […] Absorbance of the supernatant (200 µl) was recorded at 540 nm using an iEMS microplate reader. The 0.1% (v/v) solution of Triton X100 served as a positive control (as total lysis of hErc), and intact hErc served as a negative control. […] All tests were performed in triplicate and the results were expressed as haemolysis percentage (mean ± SD). Percentage of haemolysis was calculated using the following equation: haemolysis %=Asample-Anc/Apc-Anc×100 where Asample was absorbance of the tested compound, Anc was absorbance of the negative control (intact hErc) and Apc was absorbance of the positive control treated with 0.1% TritonX100. In statistical calculations, p values below 0.05 were considered significant throughout the test. For comparison of mean values, one-way ANOVA with Dunnet’s post-test was used.

S. aureus strains = assay: MIC determination, S. aureus strains; type: cell-based, Staphylococcus aureus
Procedure: as §1

Structure (SMILES)	LP inhibition (%) ± SD [1]	MIC [2]	MIC [3]	MIC [4]	MIC [5]	MIC [6]	MIC [7]	MIC [8]	MIC [9]	MIC [10]	MIC [11]	MIC (Candida kefyr ATCC 2512)	MIC [12]	MIC [13]	MIC [14]	MIC [15]	MIC [16]	MIC [17]	MIC [18]	MIC [19]	other results
COc1cc(NC(C)CCCNC(=O)NC(CC(C)C)C(=O)NC(c2ccccc2)c2ccccc2)c2ncccc2c1 (stereo not drawn) [Compound 5a, N-(diphenylmethyl)-2-[({4-[(6-methoxyquinolin-8-yl)amino]pentyl}carbamoyl)amino]-4-methylpentanamide]	15 ± 0.7%	> 100 µg/mL	> 100 µg/mL	> 100 µg/mL	15 µg/mL (≈ 25.8 µM)	65 µg/mL (≈ 112 µM)	> 100 µg/mL	60 µg/mL (≈ 103 µM)	> 100 µg/mL	70 µg/mL (≈ 120 µM)	25 µg/mL (≈ 43 µM)	> 100 µg/mL	> 100 µg/mL	> 100 µg/mL	> 100 µg/mL	> 100 µg/mL	6.5 µg/mL (≈ 11.2 µM)	25 µg/mL (≈ 43 µM)	12.5 µg/mL (≈ 21.5 µM)	50 µg/mL (≈ 85.9 µM)	MIC [20]: > 100 µg/mL; MIC [21]: > 100 µg/mL; melting point: 184.5 to 185.5 °C; hemolysis at 1 h, 50 µg/ml [22]: 3.14 ± 0.04%; hemolysis at 1 h, 100 µg/ml [22]: 4.03 ± 0.03%; hemolysis at 1 h, 200 µg/ml [22]: 4.24 ± 0.07%; MIC (S. aureus strains; Staphylococcus aureus, S. aureus strains, lowest value quoted in text): 6.5 µg/mL (≈ 11.2 µM); MIC range (S. aureus strains; tested Staphylococcus spp.): 6.5 to 15 µg/mL
COc1cc(NC(C)CCCNC(=O)NC(C(=O)N(C)C(c2ccccc2)c2ccccc2)c2ccccc2)c2ncccc2c1 (stereo not drawn) [Compound 5b, N-(diphenylmethyl)-2-[({4-[(6-methoxyquinolin-8-yl)amino]pentyl}carbamoyl)amino]-N-methyl-2-phenylacetamide]	92 ± 3.2%	> 100 µg/mL	> 100 µg/mL	> 100 µg/mL	65 µg/mL (≈ 106 µM)	> 100 µg/mL	> 100 µg/mL	> 100 µg/mL	> 100 µg/mL	> 100 µg/mL	> 100 µg/mL	> 100 µg/mL	> 100 µg/mL	> 100 µg/mL	> 100 µg/mL	> 100 µg/mL	60 µg/mL (≈ 97.4 µM)	> 100 µg/mL	> 100 µg/mL	> 100 µg/mL	MIC [20]: > 100 µg/mL; MIC [21]: > 100 µg/mL; hemolysis at 1 h, 50 µg/ml [22]: 3.13 ± 0.05%; hemolysis at 1 h, 100 µg/ml [22]: 3.94 ± 0.05%; hemolysis at 1 h, 200 µg/ml [22]: 4.04 ± 0.08%
COc1cc(NC(C)CCCNC(=O)NC(C(=O)NC(c2ccccc2)c2ccc(Cl)cc2)c2ccccc2)c2ncccc2c1 (stereo not drawn) [Compound 5c, N-[(4-chlorophenyl)(phenyl)methyl]-2-[({4-[(6-methoxyquinolin-8-yl)amino]pentyl}carbamoyl)amino]-2-phenylacetamide]	99 ± 2.8%	> 100 µg/mL	> 100 µg/mL	> 100 µg/mL	> 100 µg/mL	70 µg/mL (≈ 110 µM)	> 100 µg/mL	50 µg/mL (≈ 78.6 µM)	60 µg/mL (≈ 94.3 µM)	> 100 µg/mL	25 µg/mL (≈ 39.3 µM)	> 100 µg/mL	> 100 µg/mL	> 100 µg/mL	> 100 µg/mL	> 100 µg/mL	> 100 µg/mL	> 100 µg/mL	> 100 µg/mL	> 100 µg/mL	MIC [20]: 60 µg/mL (≈ 94.3 µM); MIC [21]: > 100 µg/mL; hemolysis at 1 h, 50 µg/ml [22]: 3.06 ± 0.05%; hemolysis at 1 h, 100 µg/ml [22]: 4.26 ± 0.07%; hemolysis at 1 h, 200 µg/ml [22]: 4.89 ± 0.13%
